Patent US20030180735A1, “Screening method” (priority 1999, published 2003)

Tested on: primary human neutrophils
Assay: Neutrophil spontaneous apoptosis by cell shrinkage (forward scatter, flow cytometry)
Format: cell-based
Details: 6 hours of culture
Experimental: FIG. 4: Inhibition of NADPH oxidase can decrease the number of cells undergoing apoptosis. Neutrophils are cultured @2×10^6/ml in a 24 well plate. Following 6 hours of culture, Forward Scatter (FSc) parameters are examined following acquisition by a FacScan. Cell shrinkage is determined by the percentage of cells with reduced FSc compared with cellular FSc parameters at t=0 h.
Onset of apoptosis as determined by cell shrinkage was determined by flow cytometry. Isolated cells are set up in culture at a concentration of 2×10^6/ml. At the indicated time points a sample is removed and the forward and side scatter parameters of the cells are measured by flow cytometry using a Becton Dickenson FACScan equipped with CellQuest software. Cell shrinkage is detected by a reduction in forward scatter parameters. Determination of apoptosis inhibition was calculated by the percentage of cells with reduced forward scatter parameters, in untreated cultures, minus percentage of cells with reduced forward scatter parameters in treated cultures.
Primary human neutrophils are isolated and puriied from the peripheral blood of normal healthy individuals. Upon culture for 6 hour in a serum-containing cell culture medium, these neutrophils undergo ‘spontaneous apoptosis’ (Haslett, Clinical Science 83, pp639-648, 1992). […]

SMILES: c1ccc2c(c1)[I+]c1ccccc1-2 [DPI]
- percentage of cells undergoing apoptosis (cell shrinkage, reduced FSc): decrease the percentage of cells undergoing apoptosis
